Assay results from US6060608A, “Analogs of CC-1065 and the duocarmycins” (The Scripps Research Institute, priority 1999, dated 2000).
Like-named read-outs stand apart in the source and are kept apart here.

Key:
[1] = test system: w794 duplex DNA; assay: DNA alkylation selectivity and efficiency within w794 DNA, thermally-induced strand cleavage and PAGE; format: biochemical, SV40; settings: for DNA alkylation efficiency, natural/unnatural enantiomer ratio: (+)/ent-(-)
Excerpt: DNA Alkylation Selectivity and Efficiency. The DNA alkylation properties of the agents were examined within w794 duplex DNA, a 144 base-pair segment of duplex DNA for which comparative results are available for related agents. The alkylation site identification and the assessment of the relative selectivity among the available sites were obtained by thermally-induced strand cleavage of the singly 5' end-labeled duplex DNA after exposure to the agents. Following treatment of the end-labeled duplex DNA with a range of agent concentrations, the unbound agent was removed by EtOH precipitation of the DNA. Redissolution of the DNA in aqueous buffer, thermolysis (100° C., 30 min) to induce strand cleavage at the sites of DNA alkylation, denaturing high resolution polyacrylamide gel electrophoresis (PAGE) adjacent to Sanger dideoxynucleotide sequencing standards, and autoradiography led to identification of the DNA cleavage and alkylation sites. The DNA alkylation reaction selectivities observed under the incubation conditions for the agents detailed herein have proven identical to the alkylation selectivities observed with shorter or extended reaction periods or when the reactions were conducted at different temperatures (37 or 4° C., 0.5-7 d). As discussed below, the rates and efficiencies but not final relative efficiencies of DNA alkylation were altered by changing the reaction temperatures.
DNA Alkylation Properties. […] The DNA alkylation reaction was examined within w794 DNA for which comparative results are available for past agents. The alkylation site identification was obtained by thermal strand cleavage of the singly 5' end-labeled duplex DNA after exposure to the agents. Following treatment of the labeled DNA with a range of agent concentrations, the unbound agent was removed by EtOH precipitation of the DNA. Redissolution of the DNA in aqueous buffer, thermolysis at 100° C. (30 min) to induce depurination and strand cleavage at the adenine N3 or guanine N3 minor groove alkylation sites, denaturing high resolution PAGE adjacent to Sanger sequencing standards and autoradiography provided the DNA cleavage and alkylation sites.
DNA Alkylation Studies: selectivity and Efficiency. General procedures, the preparation of singly ^32 P 5' end-labeled double stranded DNA, the agent binding studies, gel electrophoresis, and autoradiography were conducted according to standard procedures. Eppendorf tubes containing the 5' end-labeled DNA (9 μL) in TE buffer (10 mM Tris, 1 mM EDTA, pH 7.5) were treated with the agent in DMSO (1 μL at the specified concentration). The solution was mixed by vortexing and brief centrifugation and subsequently incubated at 4 or 25° C. for 24 h (natural enantiomers) and 25 or 37° C. (unnatural enantiomers) for 72 h. The covalently modified DNA was separated from unbound agent by EtOH precipitation and resuspended in TE buffer (10 μL). The solution of DNA in an Eppendorf tube sealed with parafilm was warmed at 100° C. for 30 min to induce cleavage at the alkylation sites, allowed to cool to 25° C. and centrifuged. Formamide dye (0.03% xylene cyanol FF, 0.03% bromophenol blue, 8.7% Na2 EDTA 250 mM) was added (5 μL) to the supernatant. Prior to electrophoresis, the sample was denatured by warming at 100° C. for 5 min, placed in an icebath, and centrifuged, and the supernatant (3 μL) was loaded directly onto the gel. Sanger dideoxynucleotide sequencing reactions were run as standards adjacent to the reaction samples. Polyacrylamide gel electrophoresis (PAGE) was run on an 8% sequencing gel under denaturing conditions (8 M urea) in TBE buffer (100 mM Tris, 100 mM boric acid, 0.2 mM Na2 EDTA) followed by autoradiography.
DNA Alkylation of w794 DNA. Eppendorf tubes containing the 5'-end labeled DNA (9 μL) in TE buffer (10 mM Tris, 1 mM EDTA, pH 7.2) were treated with the agent in DMSO (1 μL at the specified concentration). […]

[2] = test system: L1210; assay: In vitro cytotoxic activity, L1210; settings: for cytotoxic activity, ring opened precursor 115 versus cyclopropane 116: L1210; for IC50: Mus musculus, L1210, read-out: cytotoxic activity IC50
[3] = Aqueous solvolysis reactivity followed by UV; format: physicochemical
Experimental: The reactivity of 217-219 was assessed by following the solvolysis spectrophotometrically by UV at both pH 3 (50% CH3 OH-buffer, buffer=4:1:20 (v/v/v) 0.1 M citric acid, 0.2 M Na2 HPO4, H2 O) and pH 7 (1:1 H2 O--CH3 OH) measuring both the disappearance of the long-wavelength absorption band of the F2 CBI chromophore and the appearance of a short-wavelength absorption band attributable to the ring open products (FIG. 31).
Aqueous Solvolysis Reactivity. pH 3: N-BOC-CCBI (25, 100 μg) was dissolved in CH3 OH (1.5 mL) and mixed with pH 3 aqueous buffer (1.5 mL). The buffer contained 4:1:20 (v:v:v) 0.1 M citric acid, 0.2 M Na2 HPO4 and H2 O, respectively. The solvolysis solution was sealed and kept at 25° C. protected from light. The UV spectrum was measured at regular intervals every 2 h during the first day, every 12 h for another week, and every 24 h for an additional week. The decrease in the long-wavelength absorption at 322 nm and the increase in the short-wavelength absorption at 268 nm were monitored, FIG. 1.
pH 2: Samples of 25 (100 μg) and 26 (50 μg) were dissolved in CH3 OH (1.5 mL) and the solutions were mixed with aqueous buffer (pH 2.05, 1.5 mL). The buffer contained 4:1:20 (v:v:v) 1.0 M citric acid, 0.2 M Na2 HPO4, and H2 O, respectively. Immediately after mixing, the UV spectra of the solutions were measured against a reference solution containing CH3 OH (1.5 mL) and the aqueous buffer (1.5 mL) and these readings were used for the initial absorbance values. The solutions were stoppered, protected from the light, and allowed to stand at 25° C. UV spectra were recorded at regular intervals until constant values were obtained for the long and short wavelength absorbances. The solvolysis rate constants were determined from the slope of the lines obtained from linear least squares treatment of plots of ln[(Af -Ai)/(Af -A)] versus time using the short wavelength measurements for 25 and long wavelength measurements for 26).

[4] = natural enantiomers, 37° C., 72 h

COc1cc2cc(C(=O)N3CC4C(F)(F)C45C3=CC(=O)c3ccccc35)[nH]c2c(OC)c1OC (racemic) [compound 224]
DNA alkylation properties, comparison in words [1]: steadily increase as the temperature was decreased from 37 to 25 to 4 °C | DNA alkylation sequence selectivity ([1]; listed as F2 CBI-TMI): only adenine N3 alkylation was detected | DNA alkylation less efficient than CBI-TMI ([1]; racemic): 100-1000 × | DNA alkylation less efficient, by densitometry, average of several comparisons ([1]; racemic F2 CBI-TMI versus (+)-CBI-TMI): 675-725 ×

N#Cc1ccc2c(c1)C13CC1CN(C(=O)c1cc4c5c(ccc4[nH]1)N(C(N)=O)CC5)C3=CC2=O (single isomer, unassigned) [compound 39]
DNA alkylation sequence selectivity [1]: strong preference but not absolute requirement for the fourth 5' base to be A or T versus G or C

COC(=O)c1cc2c([nH]1)C(=O)C=C1N(C(=O)c3cc4cc(OC)c(OC)c(OC)c4[nH]3)CC3CC123 (single isomer, unassigned) [ent-(-)-duocarmycin SA (2), reference compound]
DNA alkylation properties, comparison in words [1]: slightly more effective

CC(C)(C)OC(=O)N1CC2CC23C1=CC(=O)c1ccccc13 (single isomer, unassigned; (+)) [(+)-N-BOC-CBI, reference compound]
DNA alkylation efficiency, natural/unnatural enantiomer ratio [1]: 5-10 ×

COc1ccc2c(c1)C13CC1CN(C(=O)OC(C)(C)C)C3=CC2=O (single isomer, unassigned; (+)) [(+)-N-BOC-MCBI, reference compound]
DNA alkylation efficiency, natural/unnatural enantiomer ratio [1]: 1-2 ×

COc1cc2cc(C(=O)N3C[C@H]4C[C@@]45C3=CC(=O)c3ccc(C#N)cc35)[nH]c2c(OC)c1OC [(+)-CCBI-TMI (35)]
DNA alkylation properties, comparison in words [1]: exhibited the same selectivity and efficiency of DNA alkylation | concentration of detectable alkylation of high affinity site 5'-AATTA ([1]; 25° C., 24 h): 10^-6 to 10^-7 M

CC(C)(C)OC(=O)N1C[C@H]2C[C@@]23C1=CC(=O)c1ccc(C#N)cc13 [(+)-N-BOC-CCBI, N-(tert-Butyloxycarbonyl)-7-cyano-1,2,9,9a-tetrahydrocyclopropa[c]benz[e]indol-4-one]
DNA alkylation efficiency, natural/unnatural enantiomer ratio [1]: 1-2 ×

N#Cc1ccc2c(c1)[C@]13C[C@H]1CN(C(=O)c1cc4c5c(ccc4[nH]1)N(C(N)=O)CC5)C3=CC2=O [(-)-CCBI-CDPI1]
DNA alkylation properties, comparison in words [1]: (-)-CCBI-indole2 >(-)-CCBI-CDPI1>(-)-CCBI-TMI

N#Cc1ccc2c(c1)[C@]13C[C@H]1CN(C(=O)c1cc4cc(NC(=O)c5cc6ccccc6[nH]5)ccc4[nH]1)C3=CC2=O [(-)-CCBI-indole2]
DNA alkylation properties, comparison in words [1]: (-)-CCBI-indole2 >(-)-CCBI-CDPI1>(-)-CCBI-TMI

COc1ccc2c(c1)C13CC1CN(C(=O)OC(C)(C)C)C3=CC2=O (stereo not drawn) [N-BOC-MCBI, reference compound]
concentration at which DNA alkylation is detectable [1, 4]: 10^-3 M | concentration at which DNA alkylation is prominent [1, 4]: 10^-2 M | relative cytotoxic potency of natural versus unnatural enantiomers ([2]; N-BOC derivatives): 2 ×

CC(C)(C)OC(=O)N1CC(CCl)c2c1cc(O)c1ccc(C#N)cc21 (stereo not drawn) [compound 23, 3-(tert-Butyloxycarbonyl)-1-(chloromethyl)-8-cyano-5-hydroxy-1,2-dihydro-3H-benz[e]indole]
cytotoxic activity of seco precursors versus cyclopropane containing agents [2]: indistinguishable from the cyclopropane containing agents

N#Cc1ccc2c(c1)C13CC1CNC3=CC2=O (stereo not drawn) [compound 26, 7-Cyano-1,2,9,9a-tetrahydrocyclopropa[c]benz[e]indol-4-one]
half-life ([3]; ch3oh-buffer 1:1, pH 2): 91.5 h

COc1cc2cc(C(=O)N3CC(CCl)c4c3cc(O)c3ccc(C#N)cc43)[nH]c2c(OC)c1OC (stereo not drawn) [compound 34]
cytotoxic activity of seco precursors versus cyclopropane containing agents [2]: indistinguishable from the cyclopropane containing agents

N#Cc1ccc2c(O)cc3c(c2c1)C(CCl)CN3C(=O)c1cc2cc(NC(=O)c3cc4ccccc4[nH]3)ccc2[nH]1 (stereo not drawn) [compound 36]
cytotoxic activity of seco precursors versus cyclopropane containing agents [2]: indistinguishable from the cyclopropane containing agents

N#Cc1ccc2c(O)cc3c(c2c1)C(CCl)CN3C(=O)c1cc2c3c(ccc2[nH]1)N(C(N)=O)CC3 (stereo not drawn) [compound 38]
cytotoxic activity of seco precursors versus cyclopropane containing agents [2]: indistinguishable from the cyclopropane containing agents

CCOC(=O)C(=O)N1CC(CCl)c2c1cc(O)c1ccccc21 (stereo not drawn) [compound 114, 1-Chloromethyl-3-(2-ethoxy-1,2-dioxoethyl)-5-hydroxy-1,2-dihydro-3H-benz[e]indole]
DNA alkylation properties, comparison in words [1]: more effective

CCOC(=O)CCC(=O)N1CC(CCl)c2c1cc(O)c1ccccc21 (stereo not drawn) [compound 115, 1-Chloromethyl-3-(4-ethoxy-1,4-dioxobutyl)-5-hydroxy-1,2-dihydro-3H-benz[e]indole]
cytotoxic activity, ring opened precursor 115 versus cyclopropane 116 [2]: no distinctions were observed | IC50 [2]: 5 to 6 nM

CCOC(=O)CCC(=O)N1CC2CC23C1=CC(=O)c1ccccc13 (stereo not drawn) [compound 116, N^2-(4-ethoxy-1,4-dioxobutyl)-1,2,9,9a-tetrahydrocyclopropa[c]benz[e]indole-4-one]
more effective at alkylating DNA than N-BOC-CBI (123) ([1]; natural enantiomer): 10-100 × | cytotoxic activity, ring opened precursor 115 versus cyclopropane 116 [2]: no distinctions were observed | IC50 [2]: 5 to 6 nM

CC(=O)N1CC2C(F)(F)C23C1=CC(=O)c1ccccc13 (stereo not drawn) [compound 217]
solvolysis reactivity relative to corresponding CBI agent lacking the two fluorines [3]: 500 × | solvolysis stability/reactivity [3]: No substantial distinction in the reactivity of 217 and 219 was observed

O=C1C=C2NCC3C(F)(F)C23c2ccccc21 (stereo not drawn) [compound 218, 9,9-difluoro-1,2,9,9a-tetrahydrocyclopropa[c]benzo[e]indol-4-one]
solvolysis reactivity relative to corresponding CBI agent lacking the two fluorines [3]: approximately 220 × | half-life ([3]; 50% ch3oh-buffer, pH 3): 4.2 h | solvolysis rate constant k ([3]; pH 3, 50% CH3OH-buffer): 4.54e-05 s⁻¹

CC(C)(C)OC(=O)N1CC2C(F)(F)C23C1=CC(=O)c1ccccc13 (stereo not drawn) [compound 219]
solvolysis stability/reactivity [3]: No substantial distinction in the reactivity of 217 and 219 was observed | half-life ([3]; 1:1 h2o-ch3oh, pH 7): 2.33 h | half-life ([3]; 50% ch3oh-buffer, pH 3): 0.26 h | solvolysis rate constant k ([3]; pH 3, 50% CH3OH-buffer): 0.000705 s⁻¹ | solvolysis rate constant k ([3]; pH 7, 1:1 H2O-CH3OH): 8.27e-05 s⁻¹

COc1cc2cc(C(=O)N3C[C@@H]4C[C@]45C3=CC(=O)c3ccc(C#N)cc35)[nH]c2c(OC)c1OC [ent-(-)-CCBI-TMI (35)]
DNA alkylation properties, comparison in words [1]: nearly indistinguishable | DNA alkylation properties, comparison in words ([1]; listed as (-)-CCBI-TMI): (-)-CCBI-indole2 >(-)-CCBI-CDPI1>(-)-CCBI-TMI
